Assay [1] concerns the target T1, Xanthine oxidase (XO) (Bos taurus, UniProt P80457). In words: uric acid formation, Morrison fit. It is filed as biochemical.
The target of assay [2] is T1, Xanthine oxidase (XO). In words: uric acid formation, absorbance […] nm. In kind it is biochemical.

This passage reports Ki and IC50 results from doi:10.1101/2023.03.04.531071v1 (biorxiv, 2023).

T1 sequence (P80457 2-1332): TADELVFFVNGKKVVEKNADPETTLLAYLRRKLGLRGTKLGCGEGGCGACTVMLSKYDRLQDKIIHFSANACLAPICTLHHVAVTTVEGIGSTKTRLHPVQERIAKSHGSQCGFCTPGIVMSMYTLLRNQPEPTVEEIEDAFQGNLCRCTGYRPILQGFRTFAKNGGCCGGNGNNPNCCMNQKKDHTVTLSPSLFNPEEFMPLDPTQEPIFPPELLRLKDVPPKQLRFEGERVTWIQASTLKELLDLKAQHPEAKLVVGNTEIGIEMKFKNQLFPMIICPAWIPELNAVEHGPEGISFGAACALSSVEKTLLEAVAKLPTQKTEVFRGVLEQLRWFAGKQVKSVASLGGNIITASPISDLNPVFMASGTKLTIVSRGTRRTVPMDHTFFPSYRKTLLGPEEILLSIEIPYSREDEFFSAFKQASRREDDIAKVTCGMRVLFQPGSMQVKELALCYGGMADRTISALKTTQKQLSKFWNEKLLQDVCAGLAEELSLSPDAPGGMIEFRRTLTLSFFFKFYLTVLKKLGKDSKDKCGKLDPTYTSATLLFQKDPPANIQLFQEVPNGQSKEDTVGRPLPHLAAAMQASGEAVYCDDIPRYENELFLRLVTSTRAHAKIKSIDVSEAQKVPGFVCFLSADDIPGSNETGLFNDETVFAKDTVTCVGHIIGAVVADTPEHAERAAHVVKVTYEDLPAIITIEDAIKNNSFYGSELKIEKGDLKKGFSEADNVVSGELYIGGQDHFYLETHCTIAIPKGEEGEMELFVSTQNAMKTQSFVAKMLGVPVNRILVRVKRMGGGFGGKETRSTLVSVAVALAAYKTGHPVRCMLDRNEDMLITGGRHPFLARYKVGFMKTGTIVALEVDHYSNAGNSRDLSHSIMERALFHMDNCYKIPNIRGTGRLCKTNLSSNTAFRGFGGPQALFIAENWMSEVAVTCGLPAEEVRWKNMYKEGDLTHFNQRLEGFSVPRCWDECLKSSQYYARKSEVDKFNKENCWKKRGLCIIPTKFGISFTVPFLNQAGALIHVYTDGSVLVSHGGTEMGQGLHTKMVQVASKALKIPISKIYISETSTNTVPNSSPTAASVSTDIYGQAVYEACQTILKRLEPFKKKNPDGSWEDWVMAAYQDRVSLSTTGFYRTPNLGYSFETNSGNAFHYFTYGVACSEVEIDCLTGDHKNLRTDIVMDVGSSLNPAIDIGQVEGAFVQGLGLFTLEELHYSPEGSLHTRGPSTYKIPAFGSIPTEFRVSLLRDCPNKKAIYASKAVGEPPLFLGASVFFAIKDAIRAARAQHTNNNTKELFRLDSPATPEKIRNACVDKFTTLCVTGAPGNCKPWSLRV

On to `Cc1cc(O)c2c(c1)C(=O)c1cccc(O)c1C2=O` [Chrysophanol], for which the inhibition constant (Ki) on Xanthine oxidase (XO) [1] came to 38.7 ± 2.71 µM. On Xanthine oxidase (XO) [2], the midpoint of inhibition, the IC50, lay at 200.9 ± 0.04 µM.

Take `COc1cc(C)cc2c1C(=O)c1c(O)cccc1C2=O` [1-O-methyl chrysophanol]: affinity at Xanthine oxidase (XO) [1] was put at a Ki of 2.22 ± 0.307 µM. The same molecule displayed a 50% inhibitory concentration (IC50) on Xanthine oxidase (XO) [2] of 24.8 ± 0.072 µM.
